Results from patent US8901118B2, “Compounds and methods for kinase modulation, and indications therefor” (Plexxikon Inc., priority 2010, dated 2014).

What was measured:
[1] = molecular target: T1, BCR-FMS BaF3 cells (Homo sapiens, UniProt P07333); experiment: BaF3 BCR-FMS cell proliferation assay (ATPlite); format: cell-based; settings: read-out: Inhibition of Cell Proliferation IC50, BCR/BaF3 Fms
T1 construct: fused on or other part: P11274 (Breakpoint cluster region protein)
T1 sequence (P07333 582-910): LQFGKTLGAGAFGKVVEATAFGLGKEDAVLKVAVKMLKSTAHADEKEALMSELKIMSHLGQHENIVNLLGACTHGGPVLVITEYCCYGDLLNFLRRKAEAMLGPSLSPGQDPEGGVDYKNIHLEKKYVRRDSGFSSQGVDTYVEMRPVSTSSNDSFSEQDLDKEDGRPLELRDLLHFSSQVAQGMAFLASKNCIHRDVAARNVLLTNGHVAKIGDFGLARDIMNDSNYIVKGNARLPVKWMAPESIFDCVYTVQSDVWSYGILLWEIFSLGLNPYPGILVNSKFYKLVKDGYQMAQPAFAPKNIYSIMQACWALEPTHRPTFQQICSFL
Protocol: Compounds are assessed in a variety of cell based assays. For example BaF3 cells engineered with any of BCR-FMS, BCR-KIT, BCR-FLT3, BCR-NTRK1, BCR-NTRK2, and BCR-NTRK3, are used in cell proliferation assays to assess inhibitory activity of Fms, Kit, Flt-3, TrkA, TrkB, and TrkC, respectively. An MV-4-11 (leukemia) cell proliferation assay is used to assess inhibitory activity in Flt-3, and SKNSH (human neuroblastoma) cell proliferation assay is used to assess efficacy of Fms/Trk inhibitors. Additional cells may be assayed similarly to assess the efficacy of Fms/Trk inhibitors, such as MiaPaCa (human pancreatic cancer) and Capan-1 (human pancreatic carcinoma) cells. Reagent and assay conditions are as follows: • BaF3 cells: • Maintained in RPMI containing 10% FBS, 1% PenStrep, 1% NEAA, and 1% L-Glutamine, supplemented with 1 mg/mL G418 and 5% WEHI-CM (or recombinant murine IL-3). • Confluent cells are split 1:50 to 1:100 every 3-4 days. • MV-4-11 cells: • Maintained in Iscove's Modified Dulbecco's Medium containing 10% FBS. • Confluent cells are split 1:4 every 3-4 days. • SKNSH cells: RPMI containing 10% FBS. On day 1, cells are counted, then centrifuged in a conical tube for 5 minutes at 1000 rpm. The supernatant is removed and cells are re-suspended as follows: • BaF3: resuspend in growth media +1 mg/mL G418 (without WEHFIL-3) to 2×10^5 cells/mL. • MV-4-11: resuspend in growth media to 5×10^5 cells/mL. • SKNSH: resuspend in growth media to 2×10^4 cells/mL. The cells are plated (50 μL, 150 μL for SKNSH cells) in each well of a 96-well dish (Corning 3610) and incubated at 37° C. in 5% CO2 overnight, cells plated to a final concentration of cells as follows: • BaF3: 10,000 cells per well. • MV-4-11: 25,000 cells per well. • SKNSH: 3,000 cells per well. On day 2, compound at a maximum concentration of 5 mM is serially diluted 1:3 for a total of 8 point titration with DMSO as a control. A 1 μL aliquot of each dilution point is added to 249 μL growth media and 50 μL is added to a well containing cells, providing 10 μM compound for the maximum concentration point. The cells are incubated for 3 days at 37° C. in 5% CO2. For SKNSH cells, a 0.75 μL aliquot of appropriate dilution in DMSO is added to 150 μL of cells. On day 5, ATPlite 1 step Luminescence Assay System (Perkin Elmer #6016739) is brought to room temperature along with the cell cultures. ATPlite is added to each well as follows: • BaF3: 25 μL per well. • MV-4-11: 40 μL per well. • SKNSH: 20 μL per well. The cells are incubated at room temperature for 10 minutes, then luminescence is read on Safire reader. The measured luminescence correlates directly with cell number, such that the reading as a function of compound concentration is used to determine the IC50 value.
It is understood that the results of these assays may vary as assay conditions are varied. Inhibition levels determined under the conditions described herein represent a relative activity for the compounds tested under the specific conditions employed. The cell based assays are likely to show variability due to the complexity of the system and the sensitivity thereof to any changes in the assay conditions. […] Results for compounds that are tested and show substantially no inhibition below the highest tested concentration are represented as “-” in the tables below. In some instances, the compounds were not tested in all of the assays, or assay results were not valid, as indicated by NA in the tables below.

[2] = molecular target: c-Kit kinase (Homo sapiens, UniProt P10721); experiment: c-Kit kinase biochemical activity assay (AlphaScreen, biotin-(E4Y)10 phosphorylation); settings: 100 μM ATP; read-out: Biochemical Inhibition IC50 Kit
Protocol: Assays for biochemical and cell based activity are known in the art, for example, U.S. Patent Application Publication Number 2009/0076046, the disclosure of which is hereby incorporated by reference as it relates to such assays. For example, in one assay the biochemical activity IC50 values are determined with respect to inhibition of c-Kit kinase activity, where inhibition of phosphorylation of a peptide substrate is measured as a function of compound concentration. Compounds to be tested are dissolved in DMSO to a concentration of 20 mM. These are diluted 30 μL into 120 μL of DMSO (4 mM) and 1 μL is added to an assay plate. These are then serially diluted […] (50 μL to 100 μL DMSO) for a total of 8 points. Plates are prepared such that each kinase reaction is 20 μL in 1× kinase buffer (25 mM HEPES, pH 7.5, 2 mM MgCl2, 2 mM MnCl2, 0.01% Tween-20, 1 mM DTT, 0.01% BSA), 5% DMSO and 100 μM ATP. Substrate is 30 nM biotin-(E4Y) 10 (Millipore). C-kit kinase (obtained from Millipore (#14-559) or is prepared as described in U.S. Patent Application Publication Number 2009/0076046, the disclosure of which is hereby incorporated by reference as it relates to this assay) is at 0.75 ng per sample. After incubation of the kinase reaction for 1 hour at room temperature, 5 μL of donor beads (Streptavidin coated beads (Perkin Elmer Life Science) final concentration 10 μg/mL) in stop buffer (25 mM Hepes pH 7.5, 100 mM EDTA, 0.01% BSA) is added, the sample is mixed and incubated for 20 minutes at room temperature before adding 5 μL of acceptor beads (PY20 coated beads (Perkin Elmer Life Science) final concentration 10 μg/mL) in stop buffer. The samples are incubated for 60 minutes at room temperature and the signal per well is read on Envision reader. Phosphorylated substrate results in binding of the PY20 antibody and association of the donor and acceptor beads such that signal correlates with kinase activity. The signal vs. compound concentration is used to determine the IC50.

Sequence of c-Kit kinase (P10721 26-976): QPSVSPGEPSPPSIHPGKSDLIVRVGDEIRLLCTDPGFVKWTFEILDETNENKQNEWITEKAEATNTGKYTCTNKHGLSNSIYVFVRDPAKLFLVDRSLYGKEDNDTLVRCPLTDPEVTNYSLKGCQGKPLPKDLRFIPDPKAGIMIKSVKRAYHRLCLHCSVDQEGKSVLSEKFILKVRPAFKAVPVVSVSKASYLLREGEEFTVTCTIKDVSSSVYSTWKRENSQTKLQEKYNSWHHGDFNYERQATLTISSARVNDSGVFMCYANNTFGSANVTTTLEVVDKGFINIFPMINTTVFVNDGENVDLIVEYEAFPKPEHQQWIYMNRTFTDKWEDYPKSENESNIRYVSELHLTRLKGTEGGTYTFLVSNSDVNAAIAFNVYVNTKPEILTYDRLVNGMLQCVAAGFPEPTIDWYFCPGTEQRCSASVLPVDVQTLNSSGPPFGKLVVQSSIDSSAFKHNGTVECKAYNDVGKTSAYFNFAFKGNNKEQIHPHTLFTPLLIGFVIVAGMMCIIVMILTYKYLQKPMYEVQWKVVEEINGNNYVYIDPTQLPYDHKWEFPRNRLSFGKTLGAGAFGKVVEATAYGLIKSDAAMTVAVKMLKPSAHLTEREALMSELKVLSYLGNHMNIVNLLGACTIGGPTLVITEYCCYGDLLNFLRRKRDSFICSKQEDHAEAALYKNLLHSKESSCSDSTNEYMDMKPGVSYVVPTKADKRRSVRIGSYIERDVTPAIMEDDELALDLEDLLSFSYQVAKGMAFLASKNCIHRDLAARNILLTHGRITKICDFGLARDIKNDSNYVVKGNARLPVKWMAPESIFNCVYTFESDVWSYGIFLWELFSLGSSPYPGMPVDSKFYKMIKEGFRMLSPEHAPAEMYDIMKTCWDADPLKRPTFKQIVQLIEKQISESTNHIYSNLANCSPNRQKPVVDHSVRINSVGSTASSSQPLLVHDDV

Row | Structure (SMILES) | IC50 [1] | IC50 [2]
1 | CC1CCC(Nc2ncc(Cc3c[nH]c4ncc(Cl)cc34)cn2)CC1 (centres unmarked) [Compound P-3009, [5-(5-Chloro-1H-pyrrolo[2,3-b]pyridin-3-ylmethyl)-pyrimidin-2-yl]-(4-methyl-cyclohexyl)-amine] | < 1000 nM | 
2 | Cc1cnc2[nH]cc(Cc3cnc(Nc4ccc(F)cc4)nc3)c2c1 [Compound P-3010, (4-Fluoro-phenyl)-[5-(5-methyl-1H-pyrrolo[2,3-b]pyridin-3-ylmethyl)-pyrimidin-2-yl]-amine] | < 100 nM | < 100 nM
3 | Clc1ccc(Nc2ncc(Cc3c[nH]c4ncc(Cl)cc34)cn2)cc1 [Compound P-3011, (4-Chloro-phenyl)-[5-(5-chloro-1H-pyrrolo[2,3-b]pyridin-3-ylmethyl)-pyrimidin-2-yl]-amine] | < 100 nM | < 10 nM
4 | Fc1ccc(Nc2ncc(Cc3c[nH]c4ncc(Cl)cc34)cn2)cc1 [Compound P-3012, [5-(5-Chloro-1H-pyrrolo[2,3-b]pyridin-3-ylmethyl)-pyrimidin-2-yl]-(4-fluoro-phenyl)-amine] | < 100 nM | < 10 nM
5 | Fc1ccccc1Nc1ncc(Cc2c[nH]c3ncc(Cl)cc23)cn1 [Compound P-3014, [5-(5-Chloro-1H-pyrrolo[2,3-b]pyridin-3-ylmethyl)-pyrimidin-2-yl]-(2-fluoro-phenyl)-amine] | < 100 nM | < 100 nM
6 | Clc1cnc2[nH]cc(Cc3cnc(Nc4ccccc4Cl)nc3)c2c1 [Compound P-3015, (2-Chloro-phenyl)-[5-(5-chloro-1H-pyrrolo[2,3-b]pyridin-3-ylmethyl)-pyrimidin-2-yl]-amine] | < 1000 nM | < 1000 nM
7 | COc1ccc(Nc2ccc(C(=O)c3c[nH]c4ncnc(NC(C)(C)C)c34)c(F)n2)cn1 [Compound P-4055, [4-(tert-butylamino)-7H-pyrrolo[2,3-d]pyrimidin-5-yl]-[2-fluoro-6-[(6-methoxy-3-pyridyl)amino]-3-pyridyl]methanone] | < 1000 nM | < 1000 nM
8 | CCNc1ncnc2[nH]cc(C(=O)c3ccc(Nc4ccc(C5CC5)nc4)nc3F)c12 [Compound P-4060, [6-[(6-cyclopropyl-3-pyridyl)amino]-2-fluoro-3-pyridyl]-[4-(ethylamino)-7H-pyrrolo[2,3-d]pyrimidin-5-yl]methanone] | < 10 nM | < 100 nM
9 | CCc1ccc(Nc2ccc(C(=O)c3c[nH]c4ncnc(Nc5ccc(C)nc5)c34)c(F)n2)cn1 [Compound P-4086, [6-[(6-ethyl-3-pyridyl)amino]-2-fluoro-3-pyridyl]-[4-[(6-methyl-3-pyridyl)amino]-7H-pyrrolo[2,3-d]pyrimidin-5-yl]methanone] |  | < 1000 nM

Now from value to compound:

Row | IC50 [1] | IC50 [2] | Structure (SMILES)
10 | < 100 nM | < 1000 nM | Fc1nc(NC2CCC(F)(F)CC2)ccc1Cc1c[nH]c2ncc(Cl)cc12 [Compound P-3013, [5-(5-Chloro-1H-pyrrolo[2,3-b]pyridin-3-ylmethyl)-6-fluoro-pyridin-2-yl]-(4,4-difluoro-cyclohexyl)-amine]
11 | < 1000 nM | < 100 nM | COc1ccc(Nc2ccc(C(=O)c3c[nH]c4ncnc(NC5CCC(F)(F)CC5)c34)c(F)n2)cn1 [Compound P-4056, [4-[(4,4-difluorocyclohexyl)amino]-7H-pyrrolo[2,3-d]pyrimidin-5-yl]-[2-fluoro-6-[(6-methoxy-3-pyridyl)amino]-3-pyridyl]methanone]
12 | < 1000 nM | > 1000 nM | O=C(c1ccc(NC2CCC(F)(F)CC2)nc1Cl)c1c[nH]c2ncnc(NCC(F)(F)F)c12 [Compound P-4057, [2-chloro-6-[(4,4-difluorocyclohexyl)amino]-3-pyridyl]-[4-(2,2,2-trifluoroethylamino)-7H-pyrrolo[2,3-d]pyrimidin-5-yl]methanone]
13 | < 100 nM | > 1000 nM | CNc1ncnc2[nH]cc(C(=O)c3ccc(NC4CCC(F)(F)CC4)nc3Cl)c12 [Compound P-4058, [2-chloro-6-[(4,4-difluorocyclohexyl)amino]-3-pyridyl]-[4-(methylamino)-7H-pyrrolo[2,3-d]pyrimidin-5-yl]methanone]
14 | < 100 nM | < 1000 nM | O=C(c1ccc(NC2CCC(F)(F)CC2)nc1Cl)c1c[nH]c2ncnc(NC3CC3)c12 [Compound P-4059, [2-chloro-6-[(4,4-difluorocyclohexyl)amino]-3-pyridyl]-[4-(cyclopropylamino)-7H-pyrrolo[2,3-d]pyrimidin-5-yl]methanone]
15 | < 100 nM | > 1000 nM | O=C(c1ccc(NC2CCC(F)(F)CC2)nc1F)c1c[nH]c2ncnc(NCC(F)(F)F)c12 [Compound P-4061, [6-[(4,4-difluorocyclohexyl)amino]-2-fluoro-3-pyridyl]-[4-(2,2,2-trifluoroethylamino)-7H-pyrrolo[2,3-d]pyrimidin-5-yl]methanone]
16 | < 100 nM | < 100 nM | O=C(c1ccc(NC2CCC(F)(F)CC2)nc1F)c1c[nH]c2ncnc(NC3CC3)c12 [Compound P-4062, [4-(cyclopropylamino)-7H-pyrrolo[2,3-d]pyrimidin-5-yl]-[6-[(4,4-difluorocyclohexyl)amino]-2-fluoro-3-pyridyl]methanone]
17 | < 100 nM | < 1000 nM | CNc1ncnc2[nH]cc(C(=O)c3ccc(NC4CCC(F)(F)CC4)nc3F)c12 [Compound P-4063, [6-[(4,4-difluorocyclohexyl)amino]-2-fluoro-3-pyridyl]-[4-(methylamino)-7H-pyrrolo[2,3-d]pyrimidin-5-yl]methanone]
